Test [1] relates to A549 cells. As to the kind of experiment: MTT cytotoxicity assay, A549 cells. In kind it is cell-based. The following applies: Homo sapiens, 72 h treatment, A549 lung carcinoma cells. On the procedure: (§1) The cell lines were cultured in DMEM or RPMI 1640 containing 10% fetal bovine serum at 37 °C in the presence of 5% CO2. The cell lines were the oral epidermoid carcinoma cell lines KB and its vincristine-selected ABCB1-overexpressing KBv200 [10]; the breast carcinoma cell lines MCF-7 and its doxorubicin-selected ABCB1-overexpressing MCF-7/adr; the lung carcinoma cell line A549 and normal liver cell line LO2.
(§2) The MTT assay was used to evaluate the cytotoxicity of a number of compounds previously isolated from mangrove-derived fungi as described. Briefly, 3–4 × 10^3 cells were incubated in 96-well plates and allowed to attach overnight before compounds at full range concentrations were added. The concentrations were chosen so that the highest concentration killed most of the cells and the lowest killed none of the cells. After 72 h treatment, 0.5 mg/ml MTT was added to each well for an additional 4 h. Subsequently, the supernatant was removed, and the purple MTT-formazan crystals were dissolved by DMSO. Finally, absorbance was recorded at 540 nm with 655 nm as a reference filter using a Model 550 Microplate Reader (Bio-Rad, USA). Experiments were performed at least three times. The standard chemotherapeutic agent doxorubicin was used as a positive control in MTT assay and normal liver cell line LO2 was used to show whether cytotoxic activity was tumor-specific. The concentrations required to inhibit growth by 50% (IC50) were calculated from survival curves using the Bliss method.
(Formazan colour is commonly taken as a measure of viable cells.)

Test [2] has as its system MCF-7 cells. The experiment in a line: MTT cytotoxicity assay, MCF-7 cells. In kind it is cell-based. The following applies: Homo sapiens, MCF7, 72 h treatment, MCF-7 breast carcinoma cells. The method, then: as §1, §2
The subject of test [3] is MCF-7/adr cells. The experiment in a line: MTT cytotoxicity assay, MCF-7/adr cells. In kind it is cell-based. The following applies: Homo sapiens, NCI/ADR-RES, 72 h treatment, doxorubicin-selected ABCB1-overexpressing MCF-7/adr cells. The method, then:
as §1, §2

The subject of test [4] is KBv200 cells. The experiment in a line: MTT cytotoxicity assay, KBv200 cells. The following applies: Homo sapiens, 72 h treatment, vincristine-selected ABCB1-overexpressing KBv200 cells. In kind it is cell-based. The method, then:
as §1, §2

Test [5] has as its system normal liver LO2 cells. The experiment in a line: MTT cytotoxicity assay, normal liver LO2 cells. In kind it is cell-based. The following applies: Homo sapiens, L02, 72 h treatment, normal liver LO2 cells. The method, then:
as §1, §2

The subject of test [6] is KB cells. As to the kind of experiment: MTT cytotoxicity assay, KB cells. The following applies: Homo sapiens, 72 h treatment, KB oral epidermoid carcinoma cells. In kind it is cell-based. On the procedure:
as §1, §2

Test [7] relates to KB, KBv200, MCF-7, MCF-7/adr, and A549 cells. As to the kind of experiment: MTT anticancer screen, cancer cell panel. In kind it is cell-based, human. The following applies: for IC50: Homo sapiens, MTT; for IC50 values in MDR cells compared with parental sensitive cells: KBv200, MCF-7/adr versus KB, MCF-7. On the procedure:
as §1, §2

Where [8] appears, read: KB, KBv200, MCF-7, MCF-7/adr, and A549 cells, read-out: IC50 values (potent cytotoxic activity).
Where [9] appears, read: cancer cells, cell lines not given, read-out: IC50 (cytotoxic activity).

Like-named read-outs stand apart in the source and are kept apart here.

Broadly, the IC50 is the concentration that gives 50% inhibition. `Cc1ccc([N+](=O)[O-])cc1CO` [Compound 2]: the IC50 in test [1], in test [2], in test [3], in test [4], in test [5] and in test [6] was above 50 µM each time.
In the case of `Cc1c(CCl)cc([N+](=O)[O-])cc1CCl` [Compound 3], the IC50 in test [1], in test [2], in test [3], in test [4], in test [5] and in test [6] was above 50 µM throughout.
For the molecule `Cc1cccc(O)c1C(=O)O` [Compound 5], the IC50 in test [1], in test [2], in test [3], in test [4], in test [5] and in test [6] was above 50 µM each time.
Consider `C/C=C/C(=O)c1cc(O)c(O)cc1O` [Compound 6], for which the IC50 in test [1], in test [2], in test [3], in test [4], in test [5] and in test [6] was above 50 µM throughout.
With `O=c1c2c(O)ccc(O)c2oc2c3c(cc(O)c12)OC1OCCC31` (stereo not shown) [Compound 7], the IC50 in test [1] was 16.5 ± 0.88 µM; in test [2], 0.17 ± 0.01 µM; in test [3], 31.6 ± 1.83 µM; in test [4] it was 9.08 ± 0.65 µM; in test [5] it was 47.4 ± 2.04 µM; in test [6], 0.03 ± 0.001 µM. Further, the 50% inhibitory concentration (IC50) in test [7] (setting [8]) was below 50 µM. In addition, the “IC50 values in MDR cells compared with parental sensitive cells” value in test [7] is reported as “much higher IC50 values”.
In the case of `O=c1c2ccccc2oc2c3c(cc(O)c12)OC1OCCC31` (stereo not shown) [Compound 8], the 50% inhibitory concentration (IC50) in test [1] is above 50 µM; in test [2], 2.53 ± 0.14 µM; in test [3], 9.37 ± 0.42 µM; in test [4] it was 17.2 ± 0.96 µM; in test [5], above 50 µM; in test [6], 0.71 ± 0.03 µM. Further, in test [7] (setting [8]), the IC50 is below 50 µM.
Regarding `COc1c2c(cc3oc4cccc(O)c4c(=O)c13)C1C=COC1O2` (stereo not shown) [Compound 9], the IC50 in test [1] was above 50 µM; in test [2] it was 1.43 ± 0.09 µM; in test [3], 31.6 ± 1.36 µM; in test [4] it was 48 ± 3.41 µM; in test [5], above 50 µM; in test [6], 0.94 ± 0.01 µM. Moreover, the IC50 in test [7] (setting [8]) was below 50 µM. The “IC50 values in MDR cells compared with parental sensitive cells” value in test [7] is “much higher IC50 values”.
Consider `C=C/C=C/COc1c(-c2ccc3c(c2OC/C=C/C=C)C(=O)C2=C(O)CC(C)C(O)C2(C(=O)OC)O3)ccc2c1C(=O)C1=C(O)CC(C)C(O)C1(C(=O)OC)O2` (stereo not shown) [Compound 10], for which the IC50 in test [1], in test [2], in test [3], in test [4], in test [5] and in test [6] was above 50 µM throughout.
As for `CCOC(=O)COc1cccc2c1C(=O)c1c(OCC(=O)OCC)cc(C)cc1C2=O` [Compound 12], the half-inhibitory concentration (IC50) in test [1], in test [2], in test [3], in test [4], in test [5] and in test [6] was above 50 µM in each case.
Consider `Cc1cc(OCc2ccccc2)c2c(c1)C(=O)c1cccc(O)c1C2=O` [Compound 15], for which the IC50 in test [1], in test [2], in test [3], in test [4], in test [5] and in test [6] was above 50 µM throughout.
As for `O=C1c2cccc(OCc3ccccc3)c2C(=O)c2c(OCc3ccccc3)cccc21` [Compound 16], the IC50 in test [1], in test [2], in test [3], in test [4], in test [5] and in test [6] was above 50 µM in each case.
Regarding `COc1cc(OC)c2c(c1)C(=O)c1cc3c(c(O)c1C2=O)C1CCOC1O3` (stereo not shown) [Compound 17], the concentration for half-maximal inhibition (IC50) in test [1], in test [2], in test [3], in test [4], in test [5] and in test [6] was above 50 µM each time.
Consider `Cc1ccc2c(c1)C(=O)c1ccc(-c3ccc4c(c3)C(=O)c3cc(C)cc(O)c3C4=O)c(O)c1C2=O` [Compound 19], for which the IC50 in test [1], in test [2], in test [3], in test [4], in test [5] and in test [6] was above 50 µM each time.
As for `COc1cc(O)c2c(c1O)C(O)C1CC(C)(O)C(O)C(O)C1C2=O` (stereo not shown) [Compound 20], the IC50 in test [1], in test [2], in test [3], in test [4], in test [5] and in test [6] was above 50 µM in each case.
Take `COc1cc(O)c2c(c1O)C(O)C1CC(C)(O)C(O)CC1C2=O` (stereo not shown) [Compound 21]: the IC50 in test [1], in test [2], in test [3], in test [4], in test [5] and in test [6] was above 50 µM in each case.
`COc1cc(O)c2c(c1O)C(O)C1CC3(C)OC3CC1C2=O` (stereo not shown) [Compound 22]: the half-maximal inhibitory concentration (IC50) in test [1], in test [2], in test [3], in test [4], in test [5] and in test [6] was above 50 µM in each case.
Consider `COc1cc(O)c2c(c1O)C(=O)C1CC(C)(O)C(O)CC1C2O` (stereo not shown) [Compound 23], for which the IC50 in test [1], in test [2], in test [3], in test [4], in test [5] and in test [6] was above 50 µM each time.
As to `COc1cc(O)c2c(c1O)C(=O)C1CC(C)(O)C(O)C(O)C1C2O` (stereo not shown) [Compound 24], the half-maximal inhibitory concentration (IC50) in test [1], in test [2], in test [3], in test [4], in test [5] and in test [6] was above 50 µM each time.
In the case of `COc1cc(O)c2c(c1O)C(=O)C1CC3(C)OC3CC1C2O` (stereo not shown) [Compound 25], the IC50 in test [1], in test [2], in test [3], in test [4], in test [5] and in test [6] was above 50 µM throughout.
Turning to `CC1OC(O[C@@H]2C(=O)c3c(O)cccc3OC2c2ccc(O)cc2)C(O)C(O)C1O` (stereo partly shown) [Compound 79], the 50% inhibitory concentration (IC50) in test [1], in test [2], in test [3], in test [4], in test [5] and in test [6] was above 50 µM each time. The IC50 in test [7] (setting [9]) was above 50 µM.
As for `CC1OC(O[C@H]2C(=O)c3c(O)cccc3OC2c2ccc(O)cc2)C(O)C(O)C1O` (stereo partly shown) [Compound 80], the half-inhibitory concentration (IC50) in test [1], in test [2], in test [3], in test [4], in test [5] and in test [6] was above 50 µM each time. The IC50 in test [7] (setting [9]) was above 50 µM.
In the case of `CCCCC/C=C\CC(O)/C=C/C=C\C/C=C\CCCC(=O)OC` (stereo not shown) [Compound 82], the 50% inhibitory concentration (IC50) in test [1], in test [2], in test [3], in test [4], in test [5] and in test [6] was above 50 µM in each case.
Turning to `CC(=O)/C=C/C=C/C=C/C(=O)CC(=O)O` [Compound 84], the IC50 in test [1], in test [2], in test [3], in test [4], in test [5] and in test [6] was above 50 µM each time.
Take `COC(=O)/C=C/C=C/C=C/C=C(C)/C=C/C=C(\C)C(=O)O` [Compound 85]: the IC50 in test [1], in test [2], in test [3], in test [4], in test [5] and in test [6] was above 50 µM in each case.

Source of the values: publication PMC2866477, “Anticancer Effect and Structure-Activity Analysis of Marine Products Isolated from Metabolites of Mangrove Fungi in the South China Sea” (Marine Drugs, 2010).
